Measurements reported in patent US5330983A, “14-O-p-chlorobenzoylaconine and analgesic/anti-inflammatory agent containing the same” (priority 1991, dated 1994).
Structures can show the parent of a compound that is named as a salt.

Legend:
[1] = tested on: Male mice of the Std:ddY Strain; experiment: Analgesic activity by the acetic acid-induced writhing method; assay type: in vivo; conditions: acetic acid i.p., counted for 10 min, n = 10
Experimental: Measurement of Analgesic Activity by the Acetic Acid-Induced Writhing Method
Male mice of the Std:ddY Strain (20-25 g), which were fasted for one night before the initiation of the experiment, were used. Test compound hardly soluble in water was used in 3% suspension in gum arabic. Test compound taking a salt form was used in aqueous solution. 0.7% acetic acid in 0.9% physiological saline solution was injected i.p. (10 ml/kg) at 2 hours and 50 minutes after the test compound was administered p.o. After 10 minutes, the number of writhing movements was counted for a period of 10 minutes.

[2] = tested on: Male mice of the Std:ddY Strain; experiment: Analgesic activity by the phenylquinone-induced writhing method; assay type: in vivo; conditions: phenylquinone i.p., counted for 15 min, n = 8~10
Experimental: Measurement of Analgesic Activity by the Phenylquinone-Induced Writhing Method
Male mice of the Std:ddY Strain (20-25 g), which were fasted for one night before the initiation of the experiment, were used. Test compound hardly soluble in water was used in 3% suspension in gum arabic. Test compound taking a salt form was used in aqueous solution. 0.03% phenylquinone in 0.5% ethanol solution was injected i.p. (10 ml/kg) at 2 hours and 55 minutes after the compound was administered p.o. After 5 minutes, the number of writhings was counted for a period of 15 minutes.

[3] = in vivo; parameters: species or system mice (Std:ddY); conditions: mouse, in vivo, po; mortality during 72 hours; Litchfield-Wilcoxon
Excerpt: (§1) EXPERIMENT EXAMPLE 6 (ACUTE TOXICITY)
(§2) Male mice of the Std:ddY Strain (20-25 g), which were fasted for one night before the initiation of the experiment, were used. Test compound hardly soluble in water was used in 3% suspension in gum arabic. Test compound taking a salt form was used in aqueous solution.

[4] = tested on: Male rats of the Wistar strain; experiment: Antiinflammatory activity by the carrageenin-induced hind paw edema; assay type: in vivo; conditions: 100 mg/kg p.o.
Experimental: Measurement of Antiinflammatory Activity by the Carrageenin-Induced Hind Paw Edema
Male rats of the Wistar strain (5 weeks old, 120-130 g), which were fasted for one night before the initiation of the experiment, were used. One hour after the oral administration of test compound, λ-carrageenin (1%) was injected s.c. under the plantar surface of the right hind paw. Thereafter, at one hour intervals for 6 hours, the volume of the paw was measured using an apparatus therefor. The results were described as a swelling rate (%) calculated using the following equation:
(R-L)×100/L=swelling rate (%)
R: the volume of the right hind paw
L: the volume of the left hind paw

[5] = tested on: Male mice of the Std:ddY Strain; experiment: Analgesic activity by the tail-pressure method; assay type: in vivo
Experimental: Measurement of Analgesic Activity by the Tail-Pressure Method
Male mice of the Std:ddY Strain (20-25 g), which were fasted for one night before the initiation of the experiment, were used. Test compound hardly soluble in water was used in 3% suspension in gum arabic. Test compound taking a salt form was used in aqueous solution. Experiments were made with a tail-pressure apparatus. Before the administration of test compounds, the pain threshold was measured twice at intervals of 30 minutes and those mice indicating a pain threshold of 30 to 80 mmHg were selected and used. The pain threshold of each mouse was measured at 1, 3 and 5 hours after test compounds were administered p.o. The results were described as a percentage of the pain threshold after the treatment with test compound relative to that before the treatment with test compound.

[6] = tested on: Male mice of the Std:ddY Strain; experiment: Analgesic activity by the hot plate method; assay type: in vivo; conditions: 52° C. plate
Experimental: Measurement of Analgesic Activity by the Hot Plate Method
Male mice of the Std:ddY Strain (20-25 g), which were fasted for one night before the initiation of the experiment, were used. Test compound hardly soluble in water was used in 3% suspension in gum arabic. Test compound taking a salt form was used in aqueous solution. Mice were placed on a cyrindric hot plate (diameter: 22 cm, height: 11 cm) made of copper which was fixed in a water bath adjusted to 52° C. so that each animal's four paws came into contact with the plate and the time taken to show the nociceptive response (jumping and licking) as an index of pain was measured. Mice showing response times above 25 seconds were excluded from the experiment. The analgesic activity of the compound was measured at 1, 3 and 5 hours after test compound was administered p.o. The results are shown in Table 4.

[7] = tested on: Male mice of the Std:ddY Strain; experiment: in vivo; conditions: p.o., mortality during 72 hours, Litchfield-Wilcoxon, 4320 min
Excerpt: as §1, §2

[8] = Property and solubility; assay type: physicochemical

SMILES	The number of writhings, mean ± S.E. ([1]; 3 mg/kg p.o.)	The number of writhings, mean ± S.E. ([1]; 10 mg/kg p.o.)	The number of writhings, mean ± S.E. ([1]; 30 mg/kg p.o.)	The number of writhings, mean ± S.E. ([2]; 3 mg/kg p.o.)	The number of writhings, mean ± S.E. ([2]; 10 mg/kg p.o.)	The number of writhings, mean ± S.E. ([2]; 30 mg/kg p.o.)	Swelling rate (%, mean ± S.E.) ([4]; 1 h after carrageenin)	Swelling rate (%, mean ± S.E.) ([4]; 2 h after carrageenin)	Swelling rate (%, mean ± S.E.) ([4]; 3 h after carrageenin)	Swelling rate (%, mean ± S.E.) ([4]; 4 h after carrageenin)	Swelling rate (%, mean ± S.E.) ([4]; 5 h after carrageenin)	Swelling rate (%, mean ± S.E.) ([4]; 6 h after carrageenin)	Pain threshold (%, mean ± S.E.), posttreatment relative to pretreatment ([5]; 100 mg/kg p.o., 1 h)	Pain threshold (%, mean ± S.E.), posttreatment relative to pretreatment ([5]; 100 mg/kg p.o., 3 h)	Pain threshold (%, mean ± S.E.), posttreatment relative to pretreatment ([5]; 100 mg/kg p.o., 5 h)	Pain threshold (%, mean ± S.E.), posttreatment relative to pretreatment ([5]; 300 mg/kg p.o., 1 h)	Pain threshold (%, mean ± S.E.), posttreatment relative to pretreatment ([5]; 300 mg/kg p.o., 3 h)	Pain threshold (%, mean ± S.E.), posttreatment relative to pretreatment ([5]; 300 mg/kg p.o., 5 h)	Pain threshold (s, mean ± S.E.) ([6]; 100 mg/kg p.o., 1 h)	Pain threshold (s, mean ± S.E.) ([6]; 100 mg/kg p.o., 3 h)	further results
CCN1CC2(COC)C(O)CC(OC)C34C5CC6(O)C(OC)C(O)C(C5C6OC(=O)c5ccccc5)C(C(OC)C23)C14 (stereo not drawn) [8-deoxy-14-O-benzoylaconine, reference compound]	24.1 ± 2.7	21.9 ± 2.6	17.8 ± 2.5	27.1 ± 2.7	25.0 ± 3.0	24.0 ± 2.3	24.8 ± 9.2%	36.3 ± 6.3%	59.8 ± 6.3%	63.5 ± 1.0%	70.3 ± 3.9%	72.2 ± 6.0%	101.8 ± 14.1%	100.2 ± 7.2%	105.6 ± 9.2%	115.6 ± 17.0%	116.2 ± 12.0%	110.2 ± 7.0%	17.3 ± 1.7 s	17.9 ± 2.1 s	LD50 at 72 h [3]: > 100 mg/kg; Pain threshold (s, mean ± S.E.) ([6]; 100 mg/kg p.o., 5 h): 18.9 ± 1.7 s; Pain threshold (s, mean ± S.E.) ([6]; 300 mg/kg p.o., 1 h): 18.6 ± 1.6 s; Pain threshold (s, mean ± S.E.) ([6]; 300 mg/kg p.o., 3 h): 24.0 ± 2.3 s; Pain threshold (s, mean ± S.E.) ([6]; 300 mg/kg p.o., 5 h): 19.6 ± 2.0 s
CCN1C[C@]2(COC)[C@H](O)C[C@H](OC)[C@]34C1[C@H]([C@H](OC)[C@H]23)[C@]1(O)[C@H]2[C@@H](OC(=O)c3ccc(Cl)cc3)[C@](O)(C[C@H]24)[C@@H](OC)[C@@H]1O [14-O-p-chlorobenzoylaconine tartrate]	17.8 ± 2.5	15.5 ± 2.3	10.7 ± 2.1	21.1 ± 2.4	18.3 ± 2.2	15.7 ± 2.7	16.0 ± 3.6%	31.5 ± 3.1%	47.3 ± 7.4%	56.1 ± 2.0%	49.6 ± 5.0%	57.6 ± 9.0%	102.6 ± 3.4%	141.1 ± 8.3%	128.0 ± 4.9%	147.0 ± 7.8%	240.4 ± 25.0%	202.9 ± 19.7%	17.3 ± 2.2 s	26.7 ± 3.2 s	LD50 [7]: > 1000 mg/kg; Pain threshold (s, mean ± S.E.) ([6]; 100 mg/kg p.o., 5 h): 24.7 ± 2.1 s; Pain threshold (s, mean ± S.E.) ([6]; 300 mg/kg p.o., 1 h): 18.7 ± 1.7 s; Pain threshold (s, mean ± S.E.) ([6]; 300 mg/kg p.o., 3 h): 42.5 ± 11.0 s; Pain threshold (s, mean ± S.E.) ([6]; 300 mg/kg p.o., 5 h): 25.7 ± 2.7 s
CCN1C[C@]2(COC)[C@H](O)C[C@H](OC)[C@]34C1[C@H]([C@H](OC)[C@H]23)[C@]1(O)[C@H]2[C@@H](OC(=O)c3ccc(Cl)cc3)[C@](O)(C[C@H]24)[C@@H](OC)[C@@H]1O [14-O-p-chlorobenzoylaconine]	19.8 ± 2.5	17.3 ± 2.4	12.9 ± 3.7	20.1 ± 3.6	17.3 ± 2.8	15.9 ± 3.5	22.4 ± 8.0%	28.0 ± 2.4%	51.0 ± 2.8%	58.6 ± 2.4%	66.8 ± 3.7%	72.9 ± 5.3%	100.4 ± 2.5%	129.6 ± 10.3%	108.0 ± 6.0%	120.0 ± 7.3%	182.0 ± 21.7%	166.0 ± 20.1%	21.6 ± 2.2 s	21.6 ± 2.0 s	Solubility in organic solvents ([8]; ether, chloroform, benzene, methanol, ethanol, acetone, ethyl acetate, pyridine and dimethyl sulfoxide): Soluble; Solubility in hexane and water ([8]; hexane and water): Insoluble; LD50 ([7]; listed as compound of the formula (I)): ≥ 1,000 mg/kg; LD50 at 72 h [3]: > 1000 mg/kg; Pain threshold (s, mean ± S.E.) ([6]; 100 mg/kg p.o., 5 h): 27.6 ± 0.9 s; Pain threshold (s, mean ± S.E.) ([6]; 300 mg/kg p.o., 1 h): 22.2 ± 1.5 s; Pain threshold (s, mean ± S.E.) ([6]; 300 mg/kg p.o., 3 h): 38.4 ± 3.3 s; Pain threshold (s, mean ± S.E.) ([6]; 300 mg/kg p.o., 5 h): 24.0 ± 1.6 s
